# Experimental data published in patent publication US11759496B2, “Compounds and pharmaceutical use thereof in the treatment of cancer” (priority 2016, dated 2023).
# Entries after “also recorded” stand apart in the source; their conditions may differ. Non-standard residues stand in square brackets, D forms with d. Residues, ends and D or L forms follow the SMILES beside them. *: point of attachment. NMeR = CN[C@@H](CCCNC(=N)N)C(=O)O; X1 = N=C(N)NCCC[C@H](CN)C(=O)*; β3hK = NCCCC[C@H](N)CC(=O)O; Nle = CCCC[C@H](N)C(=O)O
# Key:
# MEC-1 cells = assay: MEC-1 cell death (PCD) after 2 h peptide treatment; format: cell-based; settings: for MEC-1 Cell Death (%) 2 h: Table 2, NPD = Non Pertinent Data
# Experimental: Then the peptides structures were tested via NMR and X-ray. The peptides were also tested for their activity on MEC-1 and their KDs and Retention times on LCMS were determined.
# [1] = target: T1, CD47 (membrane preparation from MEC-1 cells) (Homo sapiens, UniProt Q08722); assay: Binding affinity by biolayer interferometry (Octet RED96) on biotinylated MEC-1 cell membrane preparation; settings: for Kd (μM) (OR): Table 2, average of at least three independent experiments, NPD = Non Pertinent Data
# T1 construct: MEC-1 cell membrane preparation were biotinylated with the EZ-Link NHS-PEG4-Biotin kit; endogenous in cells; host or cells: MEC-1 cells (membrane preparation)
# Experimental: The binding affinities of peptides for a membrane preparation from MEC-1 cells were measured by biolayer interferometry on an Octet RED96 System (Pall FortéBio Corp., Menlo Park, Calif.).
# The binding affinities of peptides for a membrane preparation from MEC-1 cells were measured by biolayer interferometry on an Octet RED96 System (Pall FortéBio Corp., Menlo Park, Calif.). This system monitors interference of light reflected from two sources (an internal reflection surface and the liquid/solid interface of a fiber optic sensor) to measure the rate of binding of molecules to the biosensor surface.
# MEC-1 cell membrane preparation were biotinylated with the EZ-Link NHS-PEG4-Biotin kit from Thermo-Scientific. Biotinylated membranes were then loaded onto SuperStreptavidin (SSA) biosensors (Pall FortéBio Corp.) at empirically determined concentrations.
# In order to highlight the pharmacological properties of these peptides, a systematic SAR study by the development of a binding assay allowing to the assessment of the affinity of the 4N1K analogues to CD47 was initiated. […] An Ala-scan to identify the pharmacophores of 4N1K was implemented.
# The binding affinities of peptides for a MEC-1 cells membrane preparation were measured by biolayer interferometry on an Octet RED96 System (Pall FortéBio Corp., Menlo Park, Calif.). This system monitors interference of light reflected from two sources (an internal reflection surface and the liquid/solid interface of a fiber optic sensor) to measure the rate of binding of molecules to the biosensor surface. MEC-1 cells membrane preparation is biotinylated with the EZ-Link NHS-PEG4-Biotin kit from Thermo-Scientific and excess biotin is removed using desalting column from Thermo-Scientific. Biotinylated membranes are then loaded onto SuperStreptavidin (SSA) biosensors (Pall FortéBio Corp.) at empirically determined concentrations. […] Typically, the biosensors were pre-equilibrated in PBS containing either biotinylated membranes or biocytine 100 μg/mL. Biosensors are then equilibrated in assay buffer for 10 min, brought to baseline in assay buffer for 60 sec. and transferred to wells containing peptide in dose-response (association for 120 sec. and dissociation for 300 sec.). The double reference with either membrane-loaded biosensors without any peptide dose-response or biocytine-loaded biosensors with each peptide dose-response were run in parallel for background signal double subtractions. Binding kinetics were calculated using the FortéBio Data Analysis v8.2 software.
# [2] = Solubility of the peptides in water / aqueous buffer (NMR, CD samples); format: physicochemical; settings: for solubility of peptide (in words): aqueous buffer, NMR / CD samples
# Experimental: CD spectra were recorded on a Jasco 815 spectropolarimeter (Jasco Inc., Easton, Md.) over the wavelength range 190-260 nm, at 0.2 nm intervals and 10 nm·min^−1 scan speed. Peptides were dissolved at 50 μM concentration in a 10 mM sodium phosphate buffer at pH 7.4, using 0.1 cm path length quartz cells (Hellma, Mullheim, Germany). CD spectra were deconvoluted with CDFriend program in order to estimate the peptide secondary structure content.
# NMR experiments were recorded on a 500 MHz Bruker Avance III spectrometer (Wissembourg, France) equipped with a TCI cryoprobe. NMR samples were prepared in 50 mM sodium succinate buffer, pH 5, using 2 mM peptide concentration. Sodium 2,2-dimethyl-2-silapentane-d6-5-sulfonate (Sigma Aldrich) was added at 0.1 mM concentration for chemical shift calibration and measurement of the solubilized peptide concentration. NMR experiments were processed with TOPSPIN 2.1 software (Bruker) and spectra were analyzed with Sparky program. ^1H, ^13C and ^15N resonances were assigned using 2D ^1H-^1H TOCSY (DIPSI2 isotropic scheme of 70 ms duration), 2D ^1H-^1H ROESY (300 ms mixing time), 2D ^1H-^13C HSQC, 2D ^1H-^15N HSQC, and 2D ^1H-^13C HMBC spectra. The complete ^1H, ^13C and ^15N NMR assignments of peptides 4N1K, PKT2, PKHB1 and 4NGG are provided in Tables S1-S4 (supporting information). […] The chemical shift deviations of Ha protons and Cα carbons were calculated as the differences between observed chemical shifts and random coil values reported in water. The conformational analysis of thrombospondin-1 was carried out on the crystal structure of a C-terminal fragment of human thrombospondin-1 using Pymol (Schrödinger) and Procheck programs. Predictions of NMR chemical shifts on the X-ray structure were carried out using SHIFTX2 program.
# [3] = target: T2, CD47 (NT.115-labeled membrane) (Homo sapiens, UniProt Q08722); assay: Binding affinity by microscale thermophoresis (MST), NT.115-labeled membrane; settings: Table 2; average of at least three independent experiments; NPD = Non Pertinent Data
# T2 construct: the concentration of the NT.115-labeled membrane was kept constant; endogenous in cells
# Experimental: For all experiments the concentration of the NT.115-labeled membrane was kept constant, while the concentrations of the ligand (peptide) was varied. After a short incubation time (5 min) the samples were loaded into MST premium glass capillaries and the MST analysis was performed using the Monolith NT.115.
# [4] = tested on: B-chronic lymphocytic leukemia (CLL) primary cells; settings: soluble peptide; WO 2013/182650; cited from earlier work
# [5] = tested on: B CLL cells that have the C481S mutation BTK gene; assay: Sensitivity of ibrutinib-resistant B CLL cells to PKT16; format: cell-based; settings: resistance to Ibrutinib
# CLL cells = assay: Cell death (Annexin-V and PI co-positivity) in CLL cells (FIG. 2); format: cell-based; settings: 6 h
# Experimental: FIG. 2A: cell death, measured as Annexin-V and PI co-positivity, was assessed leukemic cells treated 6 h with different concentrations of PKT16 or PKHB1. The data in the plot are the mean±s.d. (n=5). FIG. 2B: cell death induced by PKT16 (100 μM, 6 h) was measured in B-cells from twenty healthy donors and forty CLL patients. The percentages refer to the mean of the Annexin-V/PI-positive staining
# OSU cells = assay: Deaths on OSU cells treated with PKT16 or PKT16-FF (FIG. 4); format: cell-based; settings: 6 hours, control 9.5%
# Experimental: FIG. 4: compares deaths on OSU cells treated with PKT16 or PKT16-FF. For PKT16, it can be seen that the reported deaths are of 11.1, 17.9 and 52.7% for concentrations of 25 μM, 50 μM and 100 μM respectively. For PKT16-FF, it can be seen that the reported deaths are of 16.6, 38.3 and 82.4% for concentrations of 25 μM, 50 μM and 100 μM respectively. The control test provided 9.5% death of the cells.
# It was synthesized using common solide phase peptide synthesis technics as mentioned above.
# T1 sequence (Q08722 19-323): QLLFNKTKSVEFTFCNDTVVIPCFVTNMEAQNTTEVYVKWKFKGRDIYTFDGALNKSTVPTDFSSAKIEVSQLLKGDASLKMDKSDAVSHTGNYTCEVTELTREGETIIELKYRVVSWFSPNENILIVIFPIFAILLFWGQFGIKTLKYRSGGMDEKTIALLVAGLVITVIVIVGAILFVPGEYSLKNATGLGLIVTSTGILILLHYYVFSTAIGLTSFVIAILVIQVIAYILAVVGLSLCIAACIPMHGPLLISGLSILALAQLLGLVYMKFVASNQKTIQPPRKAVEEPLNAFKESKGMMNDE
# T2 sequence (Q08722 19-323): as above
Compound,MEC-1 Cell Death (%) 2 h (MEC-1 cells),Kd (μM) (OR) [1],solubility of peptide (in words) [2],Kd (μM) (MST) [3],further results
"CSCC[C@H](NC(=O)[C@@H](NC(=O)[C@@H](NC(=O)[C@H](Cc1ccc(O)cc1)NC(=O)[C@H](Cc1ccccc1)NC(=O)[C@@H](N)CCCNC(=N)N)C(C)C)C(C)C)C(=O)N[C@@H](Cc1c[nH]c2ccccc12)C(=O)N[C@@H](CCCCN)C(=O)O [4N1, reference compound]",13%,NPD,least soluble; also recorded: poorly soluble,–,–
"CSCC[C@H](NC(=O)CNC(=O)CNC(=O)[C@H](Cc1ccc(O)cc1)NC(=O)[C@H](Cc1ccccc1)NC(=O)[C@H](CCCNC(=N)N)NC(=O)[C@@H](N)CCCCN)C(=O)N[C@@H](Cc1c[nH]c2ccccc12)C(=O)N[C@@H](CCCCN)C(=O)N[C@@H](CCCCN)C(=O)O [4NGG, reference compound] (H-KRFYGGMWKK-OH)",2%,NPD,–,NPD,induction of PCD [4]: unable to induce PCD
"CCCC[C@H](NC(=O)[C@@H](NC(=O)[C@@H](NC(=O)[C@H](Cc1ccc(O)cc1)NC(=O)[C@H](Cc1ccccc1)NC(=O)[C@H](CCCNC(=N)N)N(C)C(=O)[C@H](N)CCCCN)C(C)C)C(C)C)C(=O)N[C@@H](Cc1c[nH]c2ccccc12)C(=O)N[C@@H](CCCCN)C(=O)N[C@H](CCCCN)C(=O)O [PKT16, H-(D)K ψ(CONMe)R F Y V V X W K (D)K-OH] (H-[dK][NMeR]FYVV[Nle]WK[dK]-OH)",–,–,–,–,"sensitivity to treatment with PKT16 [5]: sensitive; Cell Death (MEC-1, 2 h) (MEC-1 cells; Table 4): 68%; PCD activity relative to PKHB1 (CLL cells): improved PCD activity; Kd ([1]; Table 5, apparent Kd, biolayer interferometry, read-out: Kd (BI)): 74 µM; deaths on OSU cells (OSU cells; 25 μM): 11.1%; deaths on OSU cells (OSU cells; 50 μM): 17.9%; deaths on OSU cells (OSU cells; 100 μM): 52.7%"
"CCCC[C@H](NC(=O)[C@@H](NC(=O)[C@@H](NC(=O)[C@H](Cc1ccccc1)NC(=O)[C@H](Cc1ccccc1)NC(=O)[C@H](CCCNC(=N)N)N(C)C(=O)[C@H](N)CCCCN)C(C)C)C(C)C)C(=O)N[C@@H](Cc1c[nH]c2ccccc12)C(=O)N[C@@H](CCCCN)C(=O)N[C@H](CCCCN)C(=O)O [PKT16-FF, H-(D)K ψ(CONMe)R F F V V X W K (D)K-OH] (H-[dK][NMeR]FFVV[Nle]WK[dK]-OH)",–,–,–,–,solubility in water ([2]; water): low solubility in water
CSCC[C@H](NC(=O)[C@@H](NC(=O)[C@@H](NC(=O)[C@H](Cc1ccc(O)cc1)NC(=O)[C@H](Cc1ccccc1)NC(=O)[C@H](CCCNC(=N)N)NC(C)=O)C(C)C)C(C)C)C(=O)N[C@@H](Cc1c[nH]c2ccccc12)C(=O)N[C@@H](CCCCN)C(N)=O [compound 1],27%,–,–,–,solubility of peptide (in words) ([2]; listed as PKT1): least soluble; also recorded: poorly soluble
"CSCC[C@H](NC(=O)[C@@H](NC(=O)[C@@H](NC(=O)[C@H](Cc1ccc(O)cc1)NC(=O)[C@H](Cc1ccccc1)NC(=O)[C@@H](CN)CCCNC(=N)N)C(C)C)C(C)C)C(=O)N[C@@H](Cc1c[nH]c2ccccc12)C(=O)N[C@@H](CCCCN)CC(=O)O [compound 3, (β^2hR)FYVVMW(β^3hK)] (X1-FYVVMW[β3hK]-OH)",NPD,NPD,poorly soluble,NPD,–
